# Measured values published in patent US20260215887A1, “COATING COMPOSITION FOR THE TREATMENT OR PREVENTION OF PERIIMPLANTITIS AND PREPARATION METHOD THEREOF” (UNIVERSITAT JAUME I, priority 2023, published 2026).
# Experiments:
# [1] = system: Streptococcus Gordonii (CECT 804); experiment: Proliferation and bacterial count on inoculated grade-IV titanium disks; assay type: cell-based
# Excerpt: The mechanism of action of the composition of Example 1 was further investigated by studying in parallel assays the proliferation of bacterial population of Streptococcus Gordonii on grade-IV titanium plates which are either uncoated or coated with M1 (free of octenidine) or M3 (2% in weight of octenidine) or with a solution of octenidine having an equivalent amount of octenidine as the composition M3. The following experimental procedure was used.
# All materials used were sterile or have been previously sterilized by autoclaving. The assays were performed inside a level 2 biosafety cabinet. Three different grade IV-Ti disks were used to perform the assay. This procedure was carried out for each of the assays: First, a suspension of Streptococcus Gordonii (CECT 804) of known concentration was prepared. For this purpose, a test tube is prepared with 10 mL of d.d. H2O to which bacteria were added until the desired concentration (Concentration=1×10^6 CFU/mL). […] 500 μL of bacterial suspension of known concentration (1×10^6 CFU/mL) was then added in wells of a sterile 24-well plate. Subsequently, the grade-IV Ti disc was immersed in the bacterial suspension for 1 minute (1 disk per well) in order to inoculate the disc. […]
# Once this time was elapsed, bacteria population was counted. […]
# [2] = system: Staphylococcus aureus; conditions: known in the art; cited from earlier work
smiles,measurement,setting,value
CCCCCCCCN=c1ccn(CCCCCCCCCCn2ccc(=NCCCCCCCC)cc2)cc1 [octenidine],proliferation of bacteria population on coated disks,"[1]; after 24 hours incubation at 37° C., FIG. 22",significant reduction of bacteria proliferation
same,bacterial count of bacteria adhered to the titanium surface,"[1]; average of three samples per disk, 24 h at 37° C., uncoated disk 1,726 × 10^7","483,33 CFU/mL"
same,minimal bactericide concentration (MBC),[2],< 2 µg/mL
same,minimal inhibitory concentration (MIC),[2],< 2 µg/mL
